Data as given in patent US20200172549A1, “NOVEL CHLORIN E6-CURCUMIN DERIVATIVES, PREPARATION METHOD THEREOF, AND PHARMACEUTICAL COMPOSITION CONTAINING THE SAME FOR TREATMENT OF CANCER” (DONG SUNG PHARM. CO., LTD., priority 2017, published 2020).

Legend:
[1] = tested on: AsPC-1 pancreatic cancer cells; test: Dark cytotoxicity, MTT assay, AsPC-1; assay type: cell-based; details: 3 h, no light, 72 h incubation
Description: (§1) Dark cytotoxicity: The culture of AsPC-1 pancreatic cancer cells were grown in RPMI-1640 medium (life technologies corporation, USA) supplemented with 10% heat-inactivated fetal bovine serum (life technologies corporation, USA) and 1 penicillin (life technologies corporation, USA), whereas MIA-paca2 and PANC-1 cells were grown in DMEM. The MTT assay was used to assess the cell viability of AsPC-1, MIA-paca2, PANC-1 cells. The cells attached to a 96-well plate (5,000 cells/well) were treated with 3.125 μM, 6.25 μM, 12.5 μM, 25 μM, 50 μM of photosensitizers, 7, 10, 13, 16, and 3 for 3 h. The cells were then incubated for 72 h at 37° C. in a 5% CO2 incubator and exposed to MTT [3-(4,5-dimethylthiazol-2-yl)-2,5-diphenyl-tetrazolium bromide] (250 μg/ml) for 3 h. The solution was changed to 200 μl of dimethylsulfoxide (DMSO, Sigma). After 30 min incubation and shaking in microplate mixer, the optical density (OD) was measured using a microplate reader (Thermo Fisher scientific, USA) at 570 nm wavelength. The cell viability was calculated using the following formula: Cell viability (%)=Mean optical density of treated wells/Mean optical density of control wells×100.

MIA-PaCa-2 [2] = test: Dark cytotoxicity, MTT assay, MIA-PaCa-2; assay type: cell-based; details: 3 h, no light, 72 h incubation
Description: as §1

[3] = tested on: AsPC-1 pancreatic cancer cells; test: Phototoxicity (PDT), MTT assay, AsPC-1; assay type: cell-based; details: for Cell viability, Phototoxicity against AsPC-1: 3 h, 50 mW 0.09 J/cm^2 laser 100 sec, 72 h incubation
Description: as §1, with “Phototoxicity: The culture” for “Dark cytotoxicity: The culture”, “USA) and 1% penicillin (life” for “USA) and 1 penicillin (life”, “3 h. The photosensitized cells were then irradiated with a 50 mW, 0.09 J/cm^2 laser for 100 sec. The cells” for “3 h. The cells”

MIA-PaCa-2 [4] = test: Phototoxicity (PDT), MTT assay, MIA-PaCa-2; assay type: cell-based; details: for Cell viability, Phototoxicity against MIA-PaCa-2: 3 h, 50 mW 0.09 J/cm^2 laser 100 sec, 72 h incubation
Description: as §1, with “Phototoxicity: The culture” for “Dark cytotoxicity: The culture”, “USA) and 1% penicillin (life” for “USA) and 1 penicillin (life”, “3 h. The photosensitized cells were then irradiated with a 50 mW, 0.09 J/cm^2 laser for 100 sec. The cells” for “3 h. The cells”

PANC-1 = test: Phototoxicity (PDT), MTT assay, PANC-1; assay type: cell-based; details: for Cell viability, Phototoxicity against PANC-1: 3 h, 50 mW 0.09 J/cm^2 laser 100 sec, 72 h incubation
Description: as §1, with “Phototoxicity: The culture” for “Dark cytotoxicity: The culture”, “USA) and 1% penicillin (life” for “USA) and 1 penicillin (life”, “3 h. The photosensitized cells were then irradiated with a 50 mW, 0.09 J/cm^2 laser for 100 sec. The cells” for “3 h. The cells”

[5] = Photophysical properties (absorption) in DMSO; assay type: physicochemical
Description: The photophysical properties of Ce6-curcumin conjugates and dimethyl ester ce6 were analyzed in dimethyl sulfoxide (DMSO). All the photosensitizers 7, 10, 13, and 16 (Formula IV) effectively absorbed the red light compared to dimethyl ester ce6. The major soret peak at λmax=405-408 nm and Q-bands at 667 nm for the photosensitizers 7, 10, 13, and 16 (Formula IV) and Q band peak at 656 for dimethyl ester ce6.

[6] = 12.5 μM concentration, with light

C=Cc1c(C)c2cc3nc(c(CC(=O)OC)c4[nH]c(cc5nc(cc1[nH]2)C(C)=C5CC)c(C)c4C(=O)NCCCNC(=O)CCCC(=O)Oc1ccc(/C=C/C(=O)CC(=O)/C=C/c2ccc(O)c(OC)c2)cc1OC)C(CCC(=O)OC)C3C (centres unmarked) [Compound 7, Chlorine e6-curcumin Conjugate (7)]
Cell viability, Dark Cytotoxicity against AsPC-1 ([1]; 3.12 μM photosensitizer): 100.58%
Cell viability, Dark Cytotoxicity against AsPC-1 ([1]; 6.25 μM photosensitizer): 101.61%
Cell viability, Dark Cytotoxicity against AsPC-1 ([1]; 12.5 μM photosensitizer): 103.72%
Cell viability, Dark Cytotoxicity against AsPC-1 ([1]; 25 μM photosensitizer): 97.17%
Cell viability, Dark Cytotoxicity against AsPC-1 ([1]; 50 μM photosensitizer): 90.14%
Cell viability, Dark cytotoxicity against MIA-PaCa-2 (MIA-PaCa-2 [2]; 3.12 μM photosensitizer): 107.39%
Cell viability, Dark cytotoxicity against MIA-PaCa-2 (MIA-PaCa-2 [2]; 6.25 μM photosensitizer): 104.17%
Cell viability, Dark cytotoxicity against MIA-PaCa-2 (MIA-PaCa-2 [2]; 12.5 μM photosensitizer): 101.89%
Cell viability, Dark cytotoxicity against MIA-PaCa-2 (MIA-PaCa-2 [2]; 25 μM photosensitizer): 99.23%
Cell viability, Dark cytotoxicity against MIA-PaCa-2 (MIA-PaCa-2 [2]; 50 μM photosensitizer): 88.84%
Cell viability, Phototoxicity against AsPC-1 ([3]; 3.12 μM photosensitizer): 85.97%
Cell viability, Phototoxicity against AsPC-1 ([3]; 6.25 μM photosensitizer): 43.03%
Inhibition of AsPC-1 (PDT) [3, 6]: 75%
Cell viability, Phototoxicity against AsPC-1 ([3]; 12.5 μM photosensitizer): 24.03%
Cell viability, Phototoxicity against AsPC-1 ([3]; 25 μM photosensitizer): 10.35%
Cell viability, Phototoxicity against AsPC-1 ([3]; 50 μM photosensitizer): 6.63%
Cell viability, Phototoxicity against MIA-PaCa-2 (MIA-PaCa-2 [4]; 3.12 μM photosensitizer): 69.70%
Cell viability, Phototoxicity against MIA-PaCa-2 (MIA-PaCa-2 [4]; 6.25 μM photosensitizer): 12.35%
Inhibition of MIA-PaCa-2 (PDT) (MIA-PaCa-2 [4]; [6]): 94%
Cell viability, Phototoxicity against MIA-PaCa-2 (MIA-PaCa-2 [4]; 12.5 μM photosensitizer): 6.03%
Cell viability, Phototoxicity against MIA-PaCa-2 (MIA-PaCa-2 [4]; 25 μM photosensitizer): 5.18%
Cell viability, Phototoxicity against MIA-PaCa-2 (MIA-PaCa-2 [4]; 50 μM photosensitizer): 4.99%
Cell viability, Phototoxicity against PANC-1 (PANC-1; 3.12 μM photosensitizer): 66.14%
Cell viability, Phototoxicity against PANC-1 (PANC-1; 6.25 μM photosensitizer): 31.56%
Inhibition of PANC-1 (PDT) (PANC-1; [6]): 88%
Cell viability, Phototoxicity against PANC-1 (PANC-1; 12.5 μM photosensitizer): 12.33%
Cell viability, Phototoxicity against PANC-1 (PANC-1; 25 μM photosensitizer): 11.58%
Cell viability, Phototoxicity against PANC-1 (PANC-1; 50 μM photosensitizer): 11.87%
Q-band peak [5]: 667 nm
